Measurements: patent US20120065173A1 (priority 2006, published 2012)

Biological target: T1, recombinant human GR (Homo sapiens, UniProt P04150)
T1 construct: purchased Panvera/Invitrogen P2812 (kit P2893)
T1 sequence (P04150 1-777): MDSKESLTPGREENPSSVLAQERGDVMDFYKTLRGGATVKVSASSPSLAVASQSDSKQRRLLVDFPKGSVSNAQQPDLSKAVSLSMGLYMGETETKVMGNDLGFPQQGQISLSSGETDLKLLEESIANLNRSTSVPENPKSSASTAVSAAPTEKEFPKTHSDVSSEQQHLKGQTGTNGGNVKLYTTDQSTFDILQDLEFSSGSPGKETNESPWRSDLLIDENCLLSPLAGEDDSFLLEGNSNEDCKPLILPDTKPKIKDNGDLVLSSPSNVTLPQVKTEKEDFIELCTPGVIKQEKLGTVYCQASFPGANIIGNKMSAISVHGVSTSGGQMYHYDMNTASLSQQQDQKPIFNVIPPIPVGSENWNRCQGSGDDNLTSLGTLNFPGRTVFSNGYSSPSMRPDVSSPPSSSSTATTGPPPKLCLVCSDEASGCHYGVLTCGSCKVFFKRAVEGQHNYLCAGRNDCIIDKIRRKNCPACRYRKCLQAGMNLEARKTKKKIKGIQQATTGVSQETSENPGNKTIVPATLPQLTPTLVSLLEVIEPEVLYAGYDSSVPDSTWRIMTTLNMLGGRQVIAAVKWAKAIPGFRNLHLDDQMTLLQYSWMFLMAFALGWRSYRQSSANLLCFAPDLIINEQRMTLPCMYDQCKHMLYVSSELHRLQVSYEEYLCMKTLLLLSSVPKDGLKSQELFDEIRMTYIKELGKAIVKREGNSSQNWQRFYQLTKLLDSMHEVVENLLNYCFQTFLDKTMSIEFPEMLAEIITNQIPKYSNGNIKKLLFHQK
Test: Human Glucocorticoid Receptor (GR) Assay, fluorescence polarization (GRhuFL_FP_v2)
Assay type: binding
Conditions: GS Red tracer, 2 hours at room temperature, 100% control 10 μM Dexamethasone
Protocol: Human Glucocorticoid Receptor (GR) Assay
The assay is based on a commercial kit from Panvera/Invitrogen (Part number P2893). The assay technology is fluorescence polarization. […] The GR and Stabilizing Peptide reagents are stored at −70° C. while the GS Red is stored at −20° C. Also included in the kit are 1M DTT (Panvera, Part number P2325, stored at −20° C.) and GR Screening buffer 10× (Panvera, Part number P2814, stored at −70° C. initially but once thawed stored at room temperature). Avoid repeated freeze/thaws for all reagents. The GR Screening buffer 10× comprises 100 mM potassium phosphate, 200 mM sodium molybdate, 1 mM EDTA and 20% DMSO.
0% control was 100% DMSO and 100% control was 10 μM Dexamethasone. Background solution (8 μL; assay buffer 10×, Stabilizing Peptide, DTT and ice cold MQ water) was added to the background wells. GS Red solution (7 μL; assay buffer 10×, Stabilizing Peptide, DTT, GS Red and ice cold water) was added to all wells except background wells. GR solution (7 μL; assay buffer 10×, Stabilizing Peptide, DTT, GR and ice cold water) was added to all wells. The plate was sealed and incubated in a dark at room temperature for 2 hours.

Row | SMILES | IC50 [nM]
1 | C[C@H](NS(=O)(=O)N(C)C)[C@H](Oc1ccc2c(cnn2-c2ccc(F)cc2)c1)c1ccccc1 [Example 8] | 4.6
2 | C[C@H](NS(=O)(=O)CCN1C(=O)c2ccccc2C1=O)[C@H](Oc1ccc2c(cnn2-c2ccc(F)cc2)c1)c1ccccc1 [Example 10, 2-(1,3-Dioxoisoindol-2-yl)-N-[(1R,2S)-1-[1-(4-fluorophenyl)indazol-5-yl]oxy-1-phenyl-propan-2-yl]ethanesulfonamide] | 6.5
3 | CCCC(C)S(=O)(=O)N[C@@H](C)[C@H](Oc1ccc2c(cnn2-c2ccc(F)cc2)c1)c1ccccc1 (stereo partly drawn) [Example 13, N-[(1R,2S)-1-[1-(4-fluorophenyl)indazol-5-yl]oxy-1-phenyl-propan-2-yl]pentane-2-sulfonamide] | 5
4 | COC(=O)CCS(=O)(=O)N[C@@H](C)[C@H](Oc1ccc2c(cnn2-c2ccc(F)cc2)c1)c1ccccc1 [Example 19, Methyl 3-[[(1R,2S)-1-[1-(4-fluorophenyl)indazol-5-yl]oxy-1-phenyl-propan-2-yl]sulfamoyl]propanoate] | 5.1
5 | C[C@H](NS(=O)(=O)CC1CCCC1)[C@H](Oc1ccc2c(cnn2-c2ccc(F)cc2)c1)c1ccccc1 [Example 20, 1-Cyclopentyl-N-[(1R,2S)-1-[1-(4-fluorophenyl)indazol-5-yl]oxy-1-phenyl-propan-2-yl]methanesulfonamide] | 8.7
6 | C[C@H](NS(=O)(=O)C1CCCC1)[C@H](Oc1ccc2c(cnn2-c2ccc(F)cc2)c1)c1ccccc1 [Example 21, N-[(1R,2S)-1-[1-(4-fluorophenyl)indazol-5-yl]oxy-1-phenyl-propan-2-yl]cyclopentanesulfonamide] | 9.9
7 | C[C@H](NS(=O)(=O)CC1CCCCC1)[C@H](Oc1ccc2c(cnn2-c2ccc(F)cc2)c1)c1ccccc1 [Example 23, 1-Cyclohexyl-N-[(1R,2S)-1-[1-(4-fluorophenyl)indazol-5-yl]oxy-1-phenyl-propan-2-yl]methanesulfonamide] | 9.5
8 | CCCCCCS(=O)(=O)N[C@@H](C)[C@H](Oc1ccc2c(cnn2-c2ccc(F)cc2)c1)c1ccccc1 [Example 24, N-[(1R,2S)-1-[1-(4-fluorophenyl)indazol-5-yl]oxy-1-phenyl-propan-2-yl]hexane-1-sulfonamide] | 7.6
9 | CC(C)n1ncc2cc(O[C@H](c3ccccc3)[C@H](C)NS(C)(=O)=O)ccc21 [Example 30, N-[(1R,2S)-1-phenyl-1-(1-propan-2-ylindazol-5-yl)oxy-propan-2-yl]methanesulfonamide] | 330
10 | C[C@H](NS(=O)(=O)C1CC1)[C@H](Oc1ccc2c(cnn2-c2ccc(F)cc2)c1)c1ccc([S+](C)[O-])cc1 (stereo partly drawn) [Example 31, N-[(1R,2S)-1-[1-(4-fluorophenyl)indazol-5-yl]oxy-1-(4-methylsulfinylphenyl)propan-2-yl]cyclopropanesulfonamide] | 6.4
11 | O=S(=O)(NC[C@H](Sc1ccc2c(cnn2-c2ccc(F)cc2)c1)c1ccccc1)C1CC1 [Example 37, (R)—N-[2-[1-(4-fluorophenyl)indazol-5-yl]sulfanyl-2-phenyl-ethyl]cyclopropanesulfonamide] | 17
12 | O=S(=O)(NC[C@H](Oc1ccc2c(cnn2-c2ccc(F)cc2)c1)c1ccccc1)C1CC1 [Example 40, N-[(2R)-2-[1-(4-fluorophenyl)indazol-5-yl]oxy-2-phenyl-ethyl]cyclopropanesulfonamide] | 13
13 | O=S(=O)(NC[C@@H](Oc1ccc2c(cnn2-c2ccc(F)cc2)c1)c1ccccc1)C1CC1 [Example 41, N-[(2S)-2-[1-(4-fluorophenyl)indazol-5-yl]oxy-2-phenyl-ethyl]cyclopropanesulfonamide] | 250

Now from value to molecule:

Row | IC50 [nM] | SMILES
14 | 6.2 | C[C@H](NS(=O)(=O)C1CC1)[C@H](Oc1cc2cnn(-c3ccc(F)cc3)c2cc1Cl)c1ccc(F)cc1 (racemic) [Example 35, N-[(1RS,2SR)-1-[6-chloro-1-(4-fluorophenyl)indazol-5-yl]oxy-1-(4-fluorophenyl)propan-2-yl]cyclopropanesulfonamide]
15 | 4.3 | CC(NS(=O)(=O)C1CC1)C(Oc1cc2cnn(-c3ccc(F)cc3)c2cc1Cl)c1ccc(F)cc1 (racemic) [Example 36, N-[(1RS,2RS)-1-[6-chloro-1-(4-fluorophenyl)indazol-5-yl]oxy-1-(4-fluorophenyl)propan-2-yl]cyclopropanesulfonamide]
16 | 90 | C[C@H](NS(=O)(=O)C1CC1)[C@H](Oc1cccc2c1cnn2-c1ccc(F)cc1)c1ccccc1 [Example 3, N-[(1R,2S)-1-[1-(4-fluorophenyl)indazol-4-yl]oxy-1-phenyl-propan-2-yl]cyclopropanesulfonamide]
17 | 4.9 | C[C@H](NS(=O)(=O)C1CC1)[C@H](Oc1ccc2c(cnn2-c2ccc(F)nc2)c1)c1ccccc1 [Example 4, N-[(1R,2S)-1-[1-(6-fluoropyridin-3-yl)indazol-5-yl]oxy-1-phenyl-propan-2-yl]cyclopropanesulfonamide]
18 | 5.9 | C[C@H](NS(=O)(=O)Cc1ccccc1)[C@H](Oc1ccc2c(cnn2-c2ccc(F)cc2)c1)c1ccccc1 [Example 6, N-[(1R,2S)-1-[1-(4-fluorophenyl)indazol-5-yl]oxy-1-phenyl-propan-2-yl]-1-phenyl-methanesulfonamide]
19 | 6.9 | COc1ccc(OCCCS(=O)(=O)N[C@@H](C)[C@H](Oc2ccc3c(cnn3-c3ccc(F)cc3)c2)c2ccccc2)cc1 [Example 11, N-[(1R,2S)-1-[1-(4-fluorophenyl)indazol-5-yl]oxy-1-phenyl-propan-2-yl]-3-(4-methoxyphenoxy)propane-1-sulfonamide]
20 | 2.8 | CCS(=O)(=O)N[C@@H](C)[C@H](Oc1ccc2c(cnn2-c2ccc(F)cc2)c1)c1ccccc1 [Example 12, N-[(1R,2S)-1-[1-(4-fluorophenyl)indazol-5-yl]oxy-1-phenyl-propan-2-yl]ethanesulfonamide]
21 | 5.4 | CCCCS(=O)(=O)N[C@@H](C)[C@H](Oc1ccc2c(cnn2-c2ccc(F)cc2)c1)c1ccccc1 [Example 15]
22 | 4.3 | C[C@H](NS(=O)(=O)CCC(F)(F)F)[C@H](Oc1ccc2c(cnn2-c2ccc(F)cc2)c1)c1ccccc1 [Example 18, 3,3,3-trifluoro-N-[(1R,2S)-1-[1-(4-fluorophenyl)indazol-5-yl]oxy-1-phenyl-propan-2-yl]propane-1-sulfonamide]
23 | 2.7 | C[C@H](NS(=O)(=O)CC(F)(F)F)[C@H](Oc1ccc2c(cnn2-c2ccc(F)cc2)c1)c1ccccc1 [Example 22, 2,2,2-trifluoro-N-[(1R,2S)-1-[1-(4-fluorophenyl)indazol-5-yl]oxy-1-phenyl-propan-2-yl]ethanesulfonamide]
24 | 7 | C[C@H](NS(=O)(=O)c1cccnc1)[C@H](Oc1ccc2c(cnn2-c2ccc(F)cc2)c1)c1ccccc1 [Example 25, N-[(1R,2S)-1-[1-(4-fluorophenyl)indazol-5-yl]oxy-1-phenyl-propan-2-yl]pyridine-3-sulfonamide]
25 | 77 | Cc1ccc(-n2ncc3cc(O[C@H](c4ccccc4)C(C)(C)NS(=O)(=O)C4CC4)ccc32)cc1 [Example 26, (R)—N-(2-methyl-1-phenyl-1-(1-p-tolyl-1H-indazol-5-yloxy)propan-2-yl)cyclopropanesulfonamide]
26 | 7.6 | C[C@H](NS(=O)(=O)C1CC1)[C@H](Oc1ccc2c(cnn2C2CCCC2)c1)c1ccccc1 [Example 32, N-[(1R,2S)-1-(1-cyclopentylindazol-5-yl)oxy-1-phenyl-propan-2-yl]cyclopropanesulfonamide]
27 | 170 | CC(C)n1ncc2cc(O[C@H](c3ccccc3)[C@H](C)NS(=O)(=O)C3CC3)ccc21 [Example 33, N-[(1R,2S)-1-phenyl-1-(1-propan-2-ylindazol-5-yl)oxy-propan-2-yl]cyclopropanesulfonamide]
28 | 4.8 | C[C@H](NS(C)(=O)=O)[C@H](Sc1ccc2c(cnn2-c2ccc(F)cc2)c1)c1ccccc1 [Example 38, N-((1R,2S)-1-(1-(4-fluorophenyl)-1H-indazol-5-ylthio)-1-phenylpropan-2-yl)methanesulfonamide]
29 | 280 | C[C@H](NS(C)(=O)=O)[C@@H](c1ccccc1)S(=O)(=O)c1ccc2c(cnn2-c2ccc(F)cc2)c1 [Example 39]
